Source: ChEMBL document CHEMBL1201862, “PubChem BioAssay data set” (2004)
Active and inactive are the calls of the source.

How the values were obtained:
[1] = target: Voltage-gated inwardly rectifying potassium channel KCNH2 (Homo sapiens, UniProt Q12809); settings: Potency;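 note: confirmatory quantitative high-throughput screen measuring inhibition of hERG channel activity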
Vero = Vero cell cytotoxicity, cytotoxicity control for flavivirus capping enzyme inhibitors (AID 588742); assay type: functional; settings: Chlorocebus sabaeus
[2] = target: Photoreceptor-specific nuclear receptor (Homo sapiens, UniProt Q9Y5X4); assay type: functional, cell-based;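 note: CHO-S cells with Gal4-NCOR and VP16-NR2E3 two-hybrid luciferase reporter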
Genome polyprotein = Genome polyprotein (dengue virus type 2, UniProt P29990); test: Dengue-2 NS5 methyltransferase inhibitors, primary screen, biochemical, confirmation dose response (AID 588689); assay type: functional
Escherichia coli [3] = test: microbe, parasite or virus in culture
[4] = target: T1, Short transient receptor potential channel 4 (Mus musculus, UniProt Q9QUQ5); test: mouse TRPC4 channel inhibitors, dose response, cell-based, HEK293 TRPC4/mu-opioid, Fluo-4 calcium (AID 434942); assay type: functional;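 note: potency of inhibitors blocking the TRPC4 calcium response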
T1 sequence (Q9QUQ5 whole entry): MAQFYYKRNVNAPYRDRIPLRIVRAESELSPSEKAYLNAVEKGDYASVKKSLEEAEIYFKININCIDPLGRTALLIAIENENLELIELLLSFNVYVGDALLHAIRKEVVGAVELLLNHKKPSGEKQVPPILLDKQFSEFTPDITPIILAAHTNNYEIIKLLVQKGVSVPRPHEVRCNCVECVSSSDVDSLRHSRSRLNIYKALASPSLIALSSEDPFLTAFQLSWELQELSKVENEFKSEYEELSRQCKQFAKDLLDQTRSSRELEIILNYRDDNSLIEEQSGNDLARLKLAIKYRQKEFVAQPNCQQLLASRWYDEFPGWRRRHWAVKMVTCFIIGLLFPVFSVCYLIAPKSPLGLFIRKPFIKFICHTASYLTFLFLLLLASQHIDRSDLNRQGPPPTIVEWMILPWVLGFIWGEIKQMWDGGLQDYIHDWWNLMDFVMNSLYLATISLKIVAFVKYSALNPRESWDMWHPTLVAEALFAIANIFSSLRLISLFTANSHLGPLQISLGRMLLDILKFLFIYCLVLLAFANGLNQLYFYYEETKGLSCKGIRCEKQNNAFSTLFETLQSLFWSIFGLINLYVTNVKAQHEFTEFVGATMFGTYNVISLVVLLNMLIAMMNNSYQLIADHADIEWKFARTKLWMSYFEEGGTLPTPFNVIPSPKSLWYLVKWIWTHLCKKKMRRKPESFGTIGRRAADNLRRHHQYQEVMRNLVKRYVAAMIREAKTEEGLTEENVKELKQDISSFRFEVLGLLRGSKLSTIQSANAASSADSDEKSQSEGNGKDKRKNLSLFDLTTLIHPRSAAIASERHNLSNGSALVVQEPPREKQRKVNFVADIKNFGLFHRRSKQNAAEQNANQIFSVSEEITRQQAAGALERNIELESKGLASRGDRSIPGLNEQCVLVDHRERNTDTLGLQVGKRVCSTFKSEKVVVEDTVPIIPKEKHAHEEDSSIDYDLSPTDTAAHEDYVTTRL

Escherichia coli [5] = test: microbe, parasite or virus in culture; remark: listed apart in the source
Caspase-3 = target: T2, Caspase-3 (Homo sapiens, UniProt P42574); test: SAR Analysis of small molecule inhibitors of Sentrin-specific proteases (SENPs) using a Caspase-3 Selectivity assay. [Related pubchem assays (depositor defined):AID2540, AID2599, AID434973, AID489001]; assay type: functional
T2 sequence (P42574 whole entry): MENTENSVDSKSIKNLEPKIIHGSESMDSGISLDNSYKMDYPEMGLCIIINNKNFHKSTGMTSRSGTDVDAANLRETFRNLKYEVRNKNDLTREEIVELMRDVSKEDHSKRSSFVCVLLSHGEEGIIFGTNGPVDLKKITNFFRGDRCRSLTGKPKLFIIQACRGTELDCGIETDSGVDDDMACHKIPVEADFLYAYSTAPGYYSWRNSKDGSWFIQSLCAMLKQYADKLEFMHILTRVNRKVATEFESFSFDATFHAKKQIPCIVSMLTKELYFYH

[6] = target: T3, Sentrin-specific protease 7 (Homo sapiens, UniProt Q9BQF6); test: SENP7 protease inhibitors, SAR follow-up, biochemical, luminescence (AID 504497); assay type: functional
T3 sequence (Q9BQF6 whole entry): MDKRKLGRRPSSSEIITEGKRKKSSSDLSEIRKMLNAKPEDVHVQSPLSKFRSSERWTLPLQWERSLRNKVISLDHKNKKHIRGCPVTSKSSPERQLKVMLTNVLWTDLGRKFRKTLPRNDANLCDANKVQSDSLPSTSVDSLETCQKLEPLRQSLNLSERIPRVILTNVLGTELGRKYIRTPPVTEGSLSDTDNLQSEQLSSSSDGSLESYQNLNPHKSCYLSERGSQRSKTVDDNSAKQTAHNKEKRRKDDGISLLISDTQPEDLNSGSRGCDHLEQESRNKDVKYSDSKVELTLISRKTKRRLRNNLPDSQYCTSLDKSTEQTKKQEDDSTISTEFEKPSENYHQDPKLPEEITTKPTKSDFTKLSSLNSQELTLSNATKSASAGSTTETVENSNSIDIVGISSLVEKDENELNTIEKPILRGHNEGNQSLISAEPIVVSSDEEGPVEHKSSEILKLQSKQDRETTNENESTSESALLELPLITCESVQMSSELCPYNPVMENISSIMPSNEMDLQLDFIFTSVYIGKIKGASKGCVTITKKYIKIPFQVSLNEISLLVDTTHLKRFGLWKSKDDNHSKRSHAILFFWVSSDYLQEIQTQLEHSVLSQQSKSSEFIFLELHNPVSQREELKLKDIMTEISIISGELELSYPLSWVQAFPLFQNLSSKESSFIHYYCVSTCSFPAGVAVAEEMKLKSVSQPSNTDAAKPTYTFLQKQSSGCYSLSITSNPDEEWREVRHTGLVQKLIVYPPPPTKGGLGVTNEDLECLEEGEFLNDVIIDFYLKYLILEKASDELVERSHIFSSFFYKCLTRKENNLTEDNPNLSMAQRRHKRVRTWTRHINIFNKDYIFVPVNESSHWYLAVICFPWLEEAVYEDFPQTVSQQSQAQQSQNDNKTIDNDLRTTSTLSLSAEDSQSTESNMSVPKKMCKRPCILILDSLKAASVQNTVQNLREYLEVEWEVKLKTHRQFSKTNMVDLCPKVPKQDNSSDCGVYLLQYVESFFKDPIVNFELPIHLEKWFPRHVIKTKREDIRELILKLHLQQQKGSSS

[7] = target: T4, Sentrin-specific protease 6 (Homo sapiens, UniProt Q9GZR1); test: SAR Analysis of small molecule inhibitors of Sentrin-specific protease 6 (SENP6) using a Luminescent assay. [Related pubchem assays (depositor defined):AID2582, AID2599]; assay type: functional
T4 sequence (Q9GZR1 whole entry): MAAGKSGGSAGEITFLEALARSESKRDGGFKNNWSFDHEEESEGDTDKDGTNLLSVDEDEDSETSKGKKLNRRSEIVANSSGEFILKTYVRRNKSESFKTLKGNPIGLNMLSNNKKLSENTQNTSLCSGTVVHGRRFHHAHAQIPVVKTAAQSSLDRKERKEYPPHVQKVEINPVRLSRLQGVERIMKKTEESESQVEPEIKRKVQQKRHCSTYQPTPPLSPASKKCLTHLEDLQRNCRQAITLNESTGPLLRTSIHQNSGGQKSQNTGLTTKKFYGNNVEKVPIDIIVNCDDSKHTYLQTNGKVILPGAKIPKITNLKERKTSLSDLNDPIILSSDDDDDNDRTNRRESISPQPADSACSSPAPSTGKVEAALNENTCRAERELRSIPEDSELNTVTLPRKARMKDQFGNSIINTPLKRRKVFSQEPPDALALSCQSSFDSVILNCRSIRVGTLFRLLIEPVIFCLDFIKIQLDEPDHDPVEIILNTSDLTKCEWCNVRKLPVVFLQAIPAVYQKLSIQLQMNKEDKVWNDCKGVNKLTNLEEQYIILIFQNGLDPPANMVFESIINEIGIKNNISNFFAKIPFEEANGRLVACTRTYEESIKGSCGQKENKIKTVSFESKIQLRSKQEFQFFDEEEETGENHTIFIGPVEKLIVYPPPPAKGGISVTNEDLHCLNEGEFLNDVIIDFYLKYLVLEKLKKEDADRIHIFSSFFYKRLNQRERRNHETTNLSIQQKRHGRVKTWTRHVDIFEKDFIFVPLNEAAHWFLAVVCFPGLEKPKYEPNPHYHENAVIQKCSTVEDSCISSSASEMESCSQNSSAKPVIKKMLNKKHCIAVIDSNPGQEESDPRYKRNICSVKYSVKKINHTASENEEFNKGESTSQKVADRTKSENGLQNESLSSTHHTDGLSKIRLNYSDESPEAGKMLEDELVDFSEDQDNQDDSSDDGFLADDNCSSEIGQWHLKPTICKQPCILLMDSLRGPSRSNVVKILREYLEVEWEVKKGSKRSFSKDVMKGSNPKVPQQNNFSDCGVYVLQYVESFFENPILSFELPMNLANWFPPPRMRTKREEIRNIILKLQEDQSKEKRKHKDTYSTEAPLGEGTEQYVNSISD

[8] = target: T5, Sentrin-specific protease 8 (Homo sapiens, UniProt Q96LD8); test: SENP8 protease inhibitors, SAR follow-up, biochemical, luminescence (AID 504501); assay type: functional
T5 sequence (Q96LD8 whole entry): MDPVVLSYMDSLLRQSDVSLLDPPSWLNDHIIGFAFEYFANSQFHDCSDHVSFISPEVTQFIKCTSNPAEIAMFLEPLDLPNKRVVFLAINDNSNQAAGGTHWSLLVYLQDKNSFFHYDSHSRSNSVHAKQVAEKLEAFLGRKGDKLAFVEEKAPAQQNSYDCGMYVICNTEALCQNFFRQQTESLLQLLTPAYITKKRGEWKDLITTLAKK

[9] = target: DNA dC->dU-editing enzyme APOBEC-3A (Homo sapiens, UniProt P31941); test: SAR analysis of small molecule inhibitors of APOBEC3A DNA Deaminase via a fluorescence-based single-stranded DNA deaminase assay.; assay type: functional; settings: read-out: IC50_Mean
[10] = target: DNA dC->dU-editing enzyme APOBEC-3G (Homo sapiens, UniProt Q9HC16); test: APOBEC3G deaminase inhibitors, SAR follow-up, biochemical, fluorescence, single-stranded DNA substrate (AID 602136); assay type: functional; settings: read-out: IC50_Mean
[11] = Luminescence Cell-Based Dose Retest to Confirm Inhibitors of Cancer Stem Cells. [Related pubchem assays (depositor defined):AID2717, AID2721]; assay type: functional; settings: Homo sapiens
[12] = target: Heat shock protein HSP 90-alpha (Homo sapiens, UniProt P07900); assay type: functional, organism-based

Voltage-gated inwardly rectifying potassium channel KCNH2, sequence (Q12809 whole entry): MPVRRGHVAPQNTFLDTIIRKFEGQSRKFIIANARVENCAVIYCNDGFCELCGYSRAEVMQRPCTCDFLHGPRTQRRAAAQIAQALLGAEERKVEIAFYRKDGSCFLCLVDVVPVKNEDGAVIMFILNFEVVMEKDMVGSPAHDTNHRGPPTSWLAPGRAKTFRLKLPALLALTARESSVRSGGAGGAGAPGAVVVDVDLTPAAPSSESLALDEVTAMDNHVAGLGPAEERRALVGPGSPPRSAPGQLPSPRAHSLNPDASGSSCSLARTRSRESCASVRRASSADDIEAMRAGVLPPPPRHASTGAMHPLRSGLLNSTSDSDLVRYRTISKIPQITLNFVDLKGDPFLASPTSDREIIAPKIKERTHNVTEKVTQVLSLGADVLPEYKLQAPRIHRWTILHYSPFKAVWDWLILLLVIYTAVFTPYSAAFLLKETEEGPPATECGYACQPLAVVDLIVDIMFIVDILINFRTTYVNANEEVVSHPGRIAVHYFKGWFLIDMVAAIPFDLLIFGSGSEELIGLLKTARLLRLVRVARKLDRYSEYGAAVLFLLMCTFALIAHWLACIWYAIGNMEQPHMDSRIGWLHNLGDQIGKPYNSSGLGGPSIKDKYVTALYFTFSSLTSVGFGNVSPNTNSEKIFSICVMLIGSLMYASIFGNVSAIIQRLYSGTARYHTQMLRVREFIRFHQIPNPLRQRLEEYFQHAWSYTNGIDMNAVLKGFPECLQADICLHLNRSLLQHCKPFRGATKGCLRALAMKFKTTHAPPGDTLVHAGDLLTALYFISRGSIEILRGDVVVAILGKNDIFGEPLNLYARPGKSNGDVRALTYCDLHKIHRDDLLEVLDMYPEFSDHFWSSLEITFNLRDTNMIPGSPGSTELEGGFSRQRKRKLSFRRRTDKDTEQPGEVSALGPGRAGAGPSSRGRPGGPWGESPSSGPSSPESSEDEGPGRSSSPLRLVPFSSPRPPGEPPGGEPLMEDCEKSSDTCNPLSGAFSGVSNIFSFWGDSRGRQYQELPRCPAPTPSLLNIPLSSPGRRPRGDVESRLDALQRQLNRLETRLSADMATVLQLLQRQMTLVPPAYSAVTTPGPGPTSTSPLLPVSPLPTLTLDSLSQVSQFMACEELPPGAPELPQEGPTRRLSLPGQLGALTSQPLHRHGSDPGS
DNA dC->dU-editing enzyme APOBEC-3A, sequence (P31941 whole entry): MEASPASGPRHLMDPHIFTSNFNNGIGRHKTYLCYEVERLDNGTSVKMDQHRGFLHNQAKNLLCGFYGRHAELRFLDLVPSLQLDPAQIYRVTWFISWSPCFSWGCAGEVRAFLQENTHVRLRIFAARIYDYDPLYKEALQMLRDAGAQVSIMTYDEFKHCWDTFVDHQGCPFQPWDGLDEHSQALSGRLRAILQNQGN
Photoreceptor-specific nuclear receptor, sequence (Q9Y5X4 whole entry, the tested form may be a part): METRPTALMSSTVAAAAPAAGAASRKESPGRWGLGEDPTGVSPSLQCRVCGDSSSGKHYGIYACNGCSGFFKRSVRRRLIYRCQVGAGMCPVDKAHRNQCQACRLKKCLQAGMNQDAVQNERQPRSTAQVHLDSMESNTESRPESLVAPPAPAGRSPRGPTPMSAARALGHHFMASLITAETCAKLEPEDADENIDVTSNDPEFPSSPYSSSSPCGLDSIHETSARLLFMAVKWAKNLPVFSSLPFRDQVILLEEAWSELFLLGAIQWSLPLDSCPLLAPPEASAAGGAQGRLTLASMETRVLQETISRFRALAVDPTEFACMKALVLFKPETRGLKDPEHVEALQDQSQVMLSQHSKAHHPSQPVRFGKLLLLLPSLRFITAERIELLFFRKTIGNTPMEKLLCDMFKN
DNA dC->dU-editing enzyme APOBEC-3G, sequence (Q9HC16 whole entry): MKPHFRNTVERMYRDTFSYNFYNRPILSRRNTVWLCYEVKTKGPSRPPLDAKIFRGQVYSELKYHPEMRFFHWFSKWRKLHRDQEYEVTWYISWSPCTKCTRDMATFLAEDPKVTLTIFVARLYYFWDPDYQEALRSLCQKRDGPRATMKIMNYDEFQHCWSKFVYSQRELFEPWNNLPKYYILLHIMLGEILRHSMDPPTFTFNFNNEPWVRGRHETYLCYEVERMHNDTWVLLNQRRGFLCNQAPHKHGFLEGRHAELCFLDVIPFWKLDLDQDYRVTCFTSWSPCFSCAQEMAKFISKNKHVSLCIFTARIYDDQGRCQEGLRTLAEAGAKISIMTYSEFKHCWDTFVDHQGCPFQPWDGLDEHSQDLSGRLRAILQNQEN
Genome polyprotein, sequence (P29990 2492-3391 limits assumed): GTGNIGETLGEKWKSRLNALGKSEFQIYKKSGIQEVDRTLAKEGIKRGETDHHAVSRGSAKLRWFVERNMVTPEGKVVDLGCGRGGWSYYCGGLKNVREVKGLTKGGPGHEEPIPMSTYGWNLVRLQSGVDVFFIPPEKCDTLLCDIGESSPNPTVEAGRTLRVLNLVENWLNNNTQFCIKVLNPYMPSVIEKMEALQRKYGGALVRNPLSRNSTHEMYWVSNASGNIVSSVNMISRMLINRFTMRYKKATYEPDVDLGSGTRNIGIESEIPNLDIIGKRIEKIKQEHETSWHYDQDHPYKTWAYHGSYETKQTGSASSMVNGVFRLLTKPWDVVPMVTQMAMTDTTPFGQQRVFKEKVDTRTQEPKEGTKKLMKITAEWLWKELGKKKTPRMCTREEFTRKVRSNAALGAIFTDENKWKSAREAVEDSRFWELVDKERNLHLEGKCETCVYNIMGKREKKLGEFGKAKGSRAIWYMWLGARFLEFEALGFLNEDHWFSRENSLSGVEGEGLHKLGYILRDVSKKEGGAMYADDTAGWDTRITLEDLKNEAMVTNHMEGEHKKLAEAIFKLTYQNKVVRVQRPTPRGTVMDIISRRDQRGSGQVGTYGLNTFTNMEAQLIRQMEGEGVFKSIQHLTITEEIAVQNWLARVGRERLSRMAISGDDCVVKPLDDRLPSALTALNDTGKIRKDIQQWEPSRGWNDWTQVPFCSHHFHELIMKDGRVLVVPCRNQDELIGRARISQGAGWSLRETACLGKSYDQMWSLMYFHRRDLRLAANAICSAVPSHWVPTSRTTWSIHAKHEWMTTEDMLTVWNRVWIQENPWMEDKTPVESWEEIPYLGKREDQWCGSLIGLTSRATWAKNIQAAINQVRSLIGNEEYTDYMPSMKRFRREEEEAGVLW

With `Cc1sc2ccccc2c1CC1=NCCN1` the AC50 [1] was 35.5 µM (inconclusive).
For `Cc1ccc(S(=O)(=O)N2[C@@H](c3ccc(Cl)c(Cl)c3)C(C(=O)O)=C[C@H]2CC2CCCC2)cc1`, the CC50 (Vero) was > 40 µM (active), the IC50 [2] was 6.21 µM (active) and the IC50 (Genome polyprotein) was 43.4 µM (active).
With `OCC1(Cc2ccc(Cl)cc2)CCN(Cc2ccccc2F)CC1` the AC50 (Escherichia coli [3]) was 21.9 µM (active), the EC50 [4] was 5.96 µM (active) and the AC50 (Escherichia coli [5]) was 88.9 µM (active).
With `O=C(Nc1nc2c(Cl)cccc2s1)C1COc2ccccc2O1` (stereo not given) the IC50 (Caspase-3) was > 99 µM (inactive), the IC50 [6] was 79.7 µM (active) and the IC50 [7] was > 99 µM (inactive). For the same compound, the IC50 [8] was > 99 µM (inactive).
With `O=C(Nc1nc2ccc(Cl)cc2s1)c1cc2ccccc2o1` the IC50 (Caspase-3) was > 99 µM (inactive), the IC50 [6] was > 99 µM (inactive) and the IC50 [7] was > 99 µM (inactive). For the same compound, the IC50 [8] was > 99 µM (inactive).
For `Cc1nc2sc3c(c2c2nncn12)CCCC3`, the IC50 [9] was > 99 µM (inactive) and the IC50 [10] was > 99 µM (inactive).
In the case of `CC[C@@H]1Cc2cc(O)ccc2C2=C1c1ccc(O)cc1C[C@H]2CC`, the AC50 [11] is reported as 2.36 µM (active), the AC50 [1] is reported as 25.1 µM (inconclusive) and the AC50 [12] is reported as 6.32 µM (active).
